Patent US9499519B2, “Fused pyrimidine compounds and use thereof” (Medivation Technologies, Inc., priority 2012, dated 2016)
Like-named read-outs stand apart in the source and are kept apart here.

Assays:
IGF-1R = target: T1, IGF-1R (Homo sapiens, UniProt P08069); test: In vitro IGF-1R enzymatic assay (ADP-Glo kinase assay); type: biochemical; settings: activated IGF-1R, 30 nM; for % Inh @ 30 nM (N1) / % Inh @ 30 nM (N2): 0.03 µM
T1 construct: purchased Millipore 14-802
Method: (§1) IC50 values of the compounds of the invention against IGF-1R and IR were measured in vitro using an ADP-Glo kinase assay Kit (Promega). […] Kinase reactions in both assays were conducted at 30° C. for 20 min with increasing concentrations of compounds of the invention.
Additional compounds of the invention were screened against activated IGF-1R.

IR = target: T2, IR (Homo sapiens, UniProt P06213); test: In vitro IR enzymatic assay (ADP-Glo kinase assay); type: biochemical; settings: activated IR, 30 nM; for % Inh @ 30 nM (N1) / % Inh @ 30 nM (N2): 0.03 µM
T2 construct: purchased Millipore 14-803
Method: as §1
Additional compounds of the invention were screened against activated IR.

[1] = system: Akt phosphorylation induced by IGF-1R; test: Western blot analysis of Akt phosphorylation induced by IGF-1 in HT-29 cells; type: cell-based, Human; settings: for Levels of phosphorylated AKT in treated cells (pAKT/actin): HT-29 cells, IGF-1; for p-AKT relative to levels with 0.1 nM compound: Table B2 lower part; for Normalized phosphorylated AKT (relative to actin) levels relative to 0.1 nM compound treatment: Table B2 upper part; for pAKT relative to 0.1 nM compound: derivatives of Cpd. No. 8b
Method in brief: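 Phospho-Akt assessed by western blot in serum-depleted (24 h) human colon carcinoma HT-29 cells. Compounds applied for 2 h at 0.1–100 (0.1, 1, 10, 100); vehicle DMSO and 10 ng/mL IGF-1 served as controls. Protein in cleared lysates measured by BCA assay.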

[2] = N1, read-out: % Inh @ 30 nM (N1)
[3] = N2, read-out: % Inh @ 30 nM (N2)
[4] = average, read-out: % Inh @ 30 nM Avg

T2 sequence (P06213 28-1382): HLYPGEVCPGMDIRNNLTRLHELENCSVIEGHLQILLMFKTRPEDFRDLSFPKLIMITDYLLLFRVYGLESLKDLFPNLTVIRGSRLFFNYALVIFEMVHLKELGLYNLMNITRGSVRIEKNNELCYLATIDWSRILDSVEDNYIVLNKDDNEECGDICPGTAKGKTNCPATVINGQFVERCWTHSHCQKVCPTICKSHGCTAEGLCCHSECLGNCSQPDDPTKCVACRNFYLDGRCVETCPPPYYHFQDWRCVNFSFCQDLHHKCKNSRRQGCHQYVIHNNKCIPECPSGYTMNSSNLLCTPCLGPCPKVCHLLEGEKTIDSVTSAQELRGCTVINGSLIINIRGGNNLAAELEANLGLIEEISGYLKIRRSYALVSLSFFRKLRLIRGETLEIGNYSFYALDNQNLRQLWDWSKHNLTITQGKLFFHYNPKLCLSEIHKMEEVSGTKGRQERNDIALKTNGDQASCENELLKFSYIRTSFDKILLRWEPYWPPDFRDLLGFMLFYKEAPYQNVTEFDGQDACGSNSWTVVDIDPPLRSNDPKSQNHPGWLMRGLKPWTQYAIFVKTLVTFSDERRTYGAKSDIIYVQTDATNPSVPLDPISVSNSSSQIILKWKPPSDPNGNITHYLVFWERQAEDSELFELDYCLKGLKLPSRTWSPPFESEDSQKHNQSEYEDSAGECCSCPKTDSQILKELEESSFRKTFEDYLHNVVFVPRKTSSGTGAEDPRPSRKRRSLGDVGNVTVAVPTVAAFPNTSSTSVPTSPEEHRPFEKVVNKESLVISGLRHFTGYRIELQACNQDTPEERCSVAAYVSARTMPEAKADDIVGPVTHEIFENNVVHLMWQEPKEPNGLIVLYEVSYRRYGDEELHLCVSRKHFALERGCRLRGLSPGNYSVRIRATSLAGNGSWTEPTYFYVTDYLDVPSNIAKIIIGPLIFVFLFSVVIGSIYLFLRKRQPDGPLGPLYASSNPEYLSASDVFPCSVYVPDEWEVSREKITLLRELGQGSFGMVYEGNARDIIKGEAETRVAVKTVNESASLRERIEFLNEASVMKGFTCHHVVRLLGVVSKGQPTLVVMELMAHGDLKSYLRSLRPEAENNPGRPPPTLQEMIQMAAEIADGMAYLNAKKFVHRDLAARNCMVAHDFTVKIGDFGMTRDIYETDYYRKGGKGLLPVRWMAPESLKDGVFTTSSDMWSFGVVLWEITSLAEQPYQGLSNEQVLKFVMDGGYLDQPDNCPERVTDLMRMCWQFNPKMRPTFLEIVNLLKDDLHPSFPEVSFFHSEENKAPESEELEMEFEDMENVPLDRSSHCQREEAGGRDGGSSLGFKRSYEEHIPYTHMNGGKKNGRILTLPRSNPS
T1 sequence (P08069 31-1367): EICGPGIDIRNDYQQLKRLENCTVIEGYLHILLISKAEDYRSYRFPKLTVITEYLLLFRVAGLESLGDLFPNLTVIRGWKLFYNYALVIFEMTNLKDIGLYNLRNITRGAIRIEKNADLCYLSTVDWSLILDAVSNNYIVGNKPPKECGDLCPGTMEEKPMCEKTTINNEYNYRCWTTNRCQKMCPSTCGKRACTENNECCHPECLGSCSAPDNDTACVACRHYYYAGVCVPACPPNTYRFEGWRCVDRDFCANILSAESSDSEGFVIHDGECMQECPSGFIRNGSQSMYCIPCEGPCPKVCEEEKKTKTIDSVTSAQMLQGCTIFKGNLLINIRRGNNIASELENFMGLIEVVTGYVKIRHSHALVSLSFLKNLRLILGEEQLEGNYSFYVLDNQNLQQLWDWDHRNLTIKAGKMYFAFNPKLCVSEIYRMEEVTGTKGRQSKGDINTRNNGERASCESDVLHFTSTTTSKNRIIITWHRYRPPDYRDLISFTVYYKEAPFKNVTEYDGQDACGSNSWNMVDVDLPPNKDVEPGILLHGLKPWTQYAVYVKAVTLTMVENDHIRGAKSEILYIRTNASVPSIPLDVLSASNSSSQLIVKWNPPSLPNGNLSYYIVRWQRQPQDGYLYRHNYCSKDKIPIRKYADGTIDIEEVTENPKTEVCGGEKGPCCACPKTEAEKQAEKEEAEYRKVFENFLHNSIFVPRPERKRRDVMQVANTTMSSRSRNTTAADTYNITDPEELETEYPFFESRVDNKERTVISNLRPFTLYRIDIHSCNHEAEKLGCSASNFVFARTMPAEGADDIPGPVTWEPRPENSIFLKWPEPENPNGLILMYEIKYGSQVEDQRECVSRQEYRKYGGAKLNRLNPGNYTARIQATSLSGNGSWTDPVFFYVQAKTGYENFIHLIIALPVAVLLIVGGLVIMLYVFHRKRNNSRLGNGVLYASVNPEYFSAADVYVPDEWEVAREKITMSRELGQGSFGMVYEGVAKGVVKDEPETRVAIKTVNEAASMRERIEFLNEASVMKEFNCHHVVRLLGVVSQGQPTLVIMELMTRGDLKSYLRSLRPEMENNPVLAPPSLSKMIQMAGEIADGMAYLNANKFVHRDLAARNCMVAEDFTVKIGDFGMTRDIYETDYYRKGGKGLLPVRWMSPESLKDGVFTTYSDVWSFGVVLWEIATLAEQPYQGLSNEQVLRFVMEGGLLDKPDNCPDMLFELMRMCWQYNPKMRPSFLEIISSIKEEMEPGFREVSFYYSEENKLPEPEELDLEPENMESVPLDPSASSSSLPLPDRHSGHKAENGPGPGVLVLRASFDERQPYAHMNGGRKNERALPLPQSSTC

Compound	% Inh @ 30 nM (N1) (IGF-1R; N1)	% Inh @ 30 nM (N2) (IGF-1R; N2)	% Inh @ 30 nM Avg (IGF-1R; average)	% Inh @ 30 nM (N1) (IR; N1)	% Inh @ 30 nM (N2) (IR; N2)	% Inh @ 30 nM Avg (IR; average)	inhibition at 0.03 µM (IGF-1R; [2])	inhibition at 0.03 µM (IGF-1R; [3])	Levels of phosphorylated AKT in treated cells (pAKT/actin) ([1]; 0.1 nM compound)	p-AKT relative to levels with 0.1 nM compound ([1]; 0.1 nM)	Normalized phosphorylated AKT (relative to actin) levels relative to 0.1 nM compound treatment ([1]; 0.1 nM)	Levels of phosphorylated AKT in treated cells (pAKT/actin) ([1]; 1 nM compound)	p-AKT relative to levels with 0.1 nM compound ([1]; 1 nM)	Normalized phosphorylated AKT (relative to actin) levels relative to 0.1 nM compound treatment ([1]; 1 nM)	Levels of phosphorylated AKT in treated cells (pAKT/actin) ([1]; 10 nM compound)	p-AKT relative to levels with 0.1 nM compound ([1]; 10 nM)	Normalized phosphorylated AKT (relative to actin) levels relative to 0.1 nM compound treatment ([1]; 10 nM)	Levels of phosphorylated AKT in treated cells (pAKT/actin) ([1]; 100 nM compound)	p-AKT relative to levels with 0.1 nM compound ([1]; 100 nM)	Normalized phosphorylated AKT (relative to actin) levels relative to 0.1 nM compound treatment ([1]; 100 nM)	also measured
O=C(Nc1ccc(F)nc1)C1CCCN1c1nc2c(c(Nc3cc(C4CCCC4)[nH]n3)n1)CCC2 (single isomer, unassigned) [Compound 4b, 1-(4-(3-cyclopentyl-1H-pyrazol-5-ylamino)-6,7-dihydro-5H-cyclopenta[d]pyrimidin-2-yl)-N-(6-fluoropyridin-3-yl)pyrrolidine-2-carboxamide]	22%	35%	28%	41%	33%	37%			1.81	1.0	1.0	1.92	1.1	1.1	1.64	0.9	0.9	0.20	0.1	0.1	
O=C(Nc1cnccn1)C1CCCN1c1nc2c(c(Nc3cc(C4CC4)[nH]n3)n1)CCC2 (single isomer, unassigned) [Compound 6a, 1-(4-(3-cyclopropyl-1H-pyrazol-5-ylamino)-6,7-dihydro-5H-cyclopenta[d]pyrimidin-2-yl)-N-(pyrazin-2-yl)pyrrolidine-2-carboxamide]							22%	33%	1.85	1.0	1.0	1.74	0.9	0.9	1.40	0.8	0.8	1.17	0.6	0.6	inhibition at 0.03 µM (IGF-1R; [4]): 28%; inhibition at 0.03 µM (IR; [2]): -13%; inhibition at 0.03 µM (IR; [3]): 9%; inhibition at 0.03 µM (IR; [4]): -2%
O=C(Nc1ccc(F)nc1)C1CCCN1c1nc2c(c(Nc3cc(C4CCCC4)[nH]n3)n1)CCCC2 (single isomer, unassigned) [Compound 15b, 1-(4-(5-cyclopentyl-1H-pyrazol-3-ylamino)-5,6,7,8-tetrahydroquinazolin-2-yl)-N-(6-fluoropyridin-3-yl)pyrrolidine-2-carboxamide]	32%	28%	30%	28%	31%	30%			0.52	1.0	1.0	0.58	1.1	1.1	0.43	0.8	0.8	0.13	0.3	0.3	

Second part, led by results:

% Inh @ 30 nM (N1) (IGF-1R; N1)	% Inh @ 30 nM (N2) (IGF-1R; N2)	% Inh @ 30 nM Avg (IGF-1R; average)	% Inh @ 30 nM (N1) (IR; N1)	% Inh @ 30 nM (N2) (IR; N2)	% Inh @ 30 nM Avg (IR; average)	inhibition at 0.03 µM (IGF-1R; [2])	inhibition at 0.03 µM (IGF-1R; [3])	Compound	Levels of phosphorylated AKT in treated cells (pAKT/actin) ([1]; 0.1 nM compound)	p-AKT relative to levels with 0.1 nM compound ([1]; 0.1 nM)	Normalized phosphorylated AKT (relative to actin) levels relative to 0.1 nM compound treatment ([1]; 0.1 nM)	Levels of phosphorylated AKT in treated cells (pAKT/actin) ([1]; 1 nM compound)	p-AKT relative to levels with 0.1 nM compound ([1]; 1 nM)	Normalized phosphorylated AKT (relative to actin) levels relative to 0.1 nM compound treatment ([1]; 1 nM)	Levels of phosphorylated AKT in treated cells (pAKT/actin) ([1]; 10 nM compound)	p-AKT relative to levels with 0.1 nM compound ([1]; 10 nM)	Normalized phosphorylated AKT (relative to actin) levels relative to 0.1 nM compound treatment ([1]; 10 nM)	Levels of phosphorylated AKT in treated cells (pAKT/actin) ([1]; 100 nM compound)	p-AKT relative to levels with 0.1 nM compound ([1]; 100 nM)	Normalized phosphorylated AKT (relative to actin) levels relative to 0.1 nM compound treatment ([1]; 100 nM)	also measured
40%	40%	40%	26%	23%	25%			CC(C)c1cc(Nc2nc(N3CCCCC3C(=O)Nc3ccc(F)nc3)nc3c2CCC3)n[nH]1 (single isomer, unassigned) [Compound 16b, N-(6-fluoropyridin-3-yl)-1-(4-(5-isopropyl-1H-pyrazol-3-ylamino)-6,7-dihydro-5H-cyclopenta[d]pyrimidin-2-yl)piperidine-2-carboxamide]	0.53	1.0	1.0	0.51	1.0	1.0	0.15	0.3	0.3	0.01	0.0	0.0	
						82%	80%	CC(C)c1cc(Nc2nc(N3CCCC3C(=O)Nc3ccc(F)nc3)nc3c2CCCC3)n[nH]1 (single isomer, unassigned) [Compound 13b, N-(6-fluoropyridin-3-yl)-1-(4-(5-isopropyl-1H-pyrazol-3-ylamino)-5,6,7,8-tetrahydroquinazolin-2-yl)pyrrolidine-2-carboxamide]	0.22	1.0	1.0	0.09	0.4	0.4	0.00	0.0	0.0	0.00	0.0	0.0	inhibition at 0.03 µM (IGF-1R; [4]): 81%; inhibition at 0.03 µM (IR; [2]): 84%; inhibition at 0.03 µM (IR; [3]): 80%; inhibition at 0.03 µM (IR; [4]): 82%; pAKT relative to 0.1 nM compound ([1]; 0.1 nM): 1.00; pAKT relative to 0.1 nM compound ([1]; 1 nM): 0.49; pAKT relative to 0.1 nM compound ([1]; 10 nM): 0.04; pAKT relative to 0.1 nM compound ([1]; 100 nM): 0.02
	15%		1%	−7%	−3%			CC(C)c1cc(Nc2nc(N3CCCCC3C(=O)Nc3ccc(F)nc3)nc3c2CCC3)n[nH]1 (single isomer, unassigned) [Compound 16a, N-(6-fluoropyridin-3-yl)-1-(4-(5-isopropyl-1H-pyrazol-3-ylamino)-6,7-dihydro-5H-cyclopenta[d]pyrimidin-2-yl)piperidine-2-carboxamide]	0.82	1.0	1.0	0.62	0.8	0.8	0.61	0.7	0.7	0.30	0.4	0.4	
